The subject of this test is pathogenic bacteria. As to the kind of experiment: MIC by microdilution broth method (NCCLS M7-A4), in vitro antibacterial activity. Type of test: cell-based. Here is the method: Minimal inhibitory concentration (MIC) has been an indicator of in vitro antibacterial activity widely used in the art. The in vitro antimicrobial activity of the compounds was determined by the microdilution broth method following the test method from the National Committee for Clinical Laboratory Standards (NCCLS). This method is described in the NCCLS Document M7-A4, Vol. 17, No. 2, “Methods for Dilution Antimicrobial Susceptibility Test for Bacteria that Grow Aerobically—Fourth Edition”, which is incorporated herein by reference.
In this method two-fold serial dilutions of drug in cation adjusted Mueller-Hinton broth are added to wells in microdilution trays. The test organisms are prepared by adjusting the turbidity of actively growing broth cultures so that the final concentration of test organism after it is added to the wells is approximately 5×10^4 CFU/well.
Following inoculation of the microdilution trays, the trays are incubated at 35° C. for 16-20 hours and then read. […] The amount of growth in the wells containing the test compound is compared with the amount of growth in the growth-control wells (no test compound) used in each tray. As set forth in Table 5, compounds of the present invention were tested against a variety of pathogenic bacteria resulting in a range of activities depending on the organism tested.
On the technique in general: Dilution methods test growth across graded concentrations, often in twofold steps.

Where [1] appears, read: Staphylococcus aureus, Organism A: Staphylococcus aureus OC4172, read-out: MIC.
Where [2] appears, read: Streptococcus pneumoniae, ATCC49619, Organism E: Streptococcus pneumoniae ATCC 49619, read-out: MIC.
Setting [3] is: Streptococcus pneumoniae, Organism C: fluoroquinolone-resistant clinical isolate of Streptococcus pneumoniae (QRDR amino acid substitutions).
Where [4] appears, read: Streptococcus pneumoniae, Organism D: fluoroquinolone-resistant clinical isolate of Streptococcus pneumoniae (QRDR amino acid substitutions).
Setting [5] is: Organism A: Staphylococcus aureus OC4172.
Setting [6] is: Organism C: fluoroquinolone-resistant clinical isolate of Streptococcus pneumoniae (QRDR amino acid substitutions).
The mark [7] stands for this setting: Organism D: fluoroquinolone-resistant clinical isolate of Streptococcus pneumoniae (QRDR amino acid substitutions).
Where [8] appears, read: Organism E: Streptococcus pneumoniae ATCC 49619.
The mark [9] stands for this setting: Streptococcus pneumoniae, Organism B: fluoroquinolone-resistant clinical isolate of Streptococcus pneumoniae (QRDR amino acid substitutions).

As a reminder, the MIC is the lowest concentration that inhibits growth of the organism.

Structures are written as SMILES. In brackets after ≈: the same amount, converted by molar mass. Read-outs that look alike come from different tables or passages of the source.

In the case of `NC/C(F)=C1/CCCN(c2nc3c(cc2F)c(=O)c(C(=O)O)cn3C2CC2)CC1` [Compound 496, (E)-7-[4-(2-Amino-1-fluoro-ethylidene)-azepan-1-yl]-1-cyclopropyl-6-fluoro-4-oxo-1,4-dihydro-[1,8]naphthyridine-3-carboxylic acid], the minimum inhibitory concentration (MIC) worked out at 0.25 µg/mL (≈ 0.618 µM) under setting [1], 1 µg/mL (≈ 2.47 µM) under setting [2], 0.25 µg/mL (≈ 0.618 µM) under setting [3] and 16 µg/mL (≈ 39.6 µM) under setting [4].

Turning to `CNCC(C)=C1CCN(c2cc3c(cc2F)c(=O)c(C(=O)O)cn3C2CC2)CC1` [Compound 219, 1-Cyclopropyl-6-fluoro-7-[4-(1-methyl-2-methylamino-ethylidene)-piperidin-1-yl]-4-oxo-1,4-dihydro-quinoline-3-carboxylic acid], the MIC under setting [5] came to 0.5 µg/mL (≈ 1.25 µM); the MIC under setting [6] was 8 µg/mL (≈ 20 µM); the MIC under setting [7] was 4 µg/mL (≈ 10 µM); the MIC under setting [8] came out at 0.5 µg/mL (≈ 1.25 µM); the lowest concentration to inhibit growth under setting [9] (MIC) was 8 µg/mL (≈ 20 µM).

Take `C[C@H]1CN(c2nc3c(cc2F)c(=O)c(C(=O)O)cn3C2CC2)C/C(=C(/F)CN)CO1` [Compound 499, (Z)-7-[6-(2-Amino-1-fluoro-ethylidene)-(2S)-2-methyl-[1,4]oxazepan-4-yl]-1-cyclopropyl-6-fluoro-4-oxo-1,4-dihydro-[1,8]naphthyridine-3-carboxylic acid]: the MIC is, setting by setting: under setting [1], 8 µg/mL (≈ 19 µM); under setting [2], above 16 µg/mL; under setting [9], above 16 µg/mL; under setting [3], above 16 µg/mL; under setting [4], above 16 µg/mL.

As to `COc1c(N2CCC/C(=C(/C)CN)C2)c(F)cc2c(=O)c(C(=O)O)cn(C3CC3)c12` [Compound 392, (E)-7-[3-(2-Amino-1-methyl-ethylidene)-piperidin-1-yl]-1-cyclopropyl-6-fluoro-8-methoxy-4-oxo-1,4-dihydro-quinoline-3-carboxylic acid], the MIC by setting is: under setting [1], 0.25 µg/mL (≈ 0.602 µM); under setting [2], 1 µg/mL (≈ 2.41 µM); under setting [9], 16 µg/mL (≈ 38.5 µM); under setting [3], above 16 µg/mL; under setting [4], 8 µg/mL (≈ 19.3 µM).

Consider `CNCC(C)=C1CCN(c2c(F)cc3c(=O)c(C(=O)O)cn(C4CC4)c3c2OC(F)F)CC1` [Compound 220, 1-Cyclopropyl-8-difluoromethoxy-6-fluoro-7-[4-(1-methyl-2-methylamino-ethylidene)-piperidin-1-yl]-4-oxo-1,4-dihydro-quinoline-3-carboxylic acid], for which the MIC by setting is: under setting [5], 0.12 µg/mL (≈ 0.258 µM); under setting [6], 4 µg/mL (≈ 8.59 µM); under setting [7], 0.5 µg/mL (≈ 1.07 µM); under setting [8], 0.5 µg/mL (≈ 1.07 µM); under setting [9], 2 µg/mL (≈ 4.3 µM).

For `COc1c(N2CCOC/C(=C(/F)CN)C2)c(F)cc2c(=O)c(C(=O)O)cn(C3CC3)c12` [Compound 508, (E)-7-[6-(2-Amino-1-fluoro-ethylidene)-[1,4]oxazepan-4-yl]-1-cyclopropyl-6-fluoro-8-methoxy-4-oxo-1,4-dihydro-quinoline-3-carboxylic acid], the minimal inhibitory concentration (MIC) is 0.12 µg/mL (≈ 0.276 µM) under setting [1]; 1 µg/mL (≈ 2.3 µM) under setting [2]; at most 4 µg/mL under setting [9]; above 16 µg/mL under setting [3]; 8 µg/mL (≈ 18.4 µM) under setting [4].

Take `C/C(CN)=C1\CCCN(c2cc3c(cc2F)c(=O)c(C(=O)O)cn3C2CC2)C1` [Compound 301, (Z)-7-[3-(2-Amino-1-methyl-ethylidene)-piperidin-1-yl]-1-cyclopropyl-6-fluoro-4-oxo-1,4-dihydro-quinoline-3-carboxylic acid]: the minimum inhibitory concentration (MIC) was determined as 0.12 µg/mL (≈ 0.311 µM) under setting [1]; 0.25 µg/mL (≈ 0.649 µM) under setting [2]; 8 µg/mL (≈ 20.8 µM) under setting [9]; 8 µg/mL (≈ 20.8 µM) under setting [3]; 8 µg/mL (≈ 20.8 µM) under setting [4].

Turning to `NCC(Cl)=C1CCN(c2nc3c(cc2F)c(=O)c(C(=O)O)cn3-c2ccc(F)cc2F)CC1` [Compound 271, 7-[4-(2-Amino-1-chloro-ethylidene)-piperidin-1-yl]-1-(2,4-difluoro-phenyl)-6-fluoro-4-oxo-1,4-dihydro-[1,8]naphthyridine-3-carboxylic acid], the MIC was at most 0.015 µg/mL under setting [1]; 0.12 µg/mL (≈ 0.251 µM) under setting [2]; 1 µg/mL (≈ 2.09 µM) under setting [9]; 1 µg/mL (≈ 2.09 µM) under setting [3]; 1 µg/mL (≈ 2.09 µM) under setting [4].

For `CN(C)CC(F)=C1CCN(c2cc3c(cc2F)c(=O)c(C(=O)O)cn3C2CC2)CC1` [Compound 299, 1-Cyclopropyl-7-[4-(2-dimethylamino-1-fluoro-ethylidene)-piperidin-1-yl]-6-fluoro-4-oxo-1,4-dihydro-quinoline-3-carboxylic acid], the MIC was 0.5 µg/mL (≈ 1.2 µM) under setting [1]; 1 µg/mL (≈ 2.4 µM) under setting [2]; 16 µg/mL (≈ 38.3 µM) under setting [9]; above 16 µg/mL under setting [3]; 2 µg/mL (≈ 4.79 µM) under setting [4].

On to `CCC(CN)=C1CCN(c2nc3c(cc2F)c(=O)c(C(=O)O)cn3C2CC2)CC1` [Compound 69, 7-[4-(1-Aminomethyl-propylidene)-piperidin-1-yl]-1-cyclopropyl-6-fluoro-4-oxo-1,4-dihydro-[1,8]naphthyridine-3-carboxylic acid], for which the MIC turned out to be 0.06 µg/mL (≈ 0.15 µM) under setting [1], 0.25 µg/mL (≈ 0.624 µM) under setting [2], 1 µg/mL (≈ 2.5 µM) under setting [3] and 2 µg/mL (≈ 4.99 µM) under setting [4].

On to `COc1c(N2CCC(=CCN)CC2)c(F)cc2c(=O)c(C(=O)O)cn(C3CC3)c12` [Compound 212, 7-[4-(2-Amino-ethylidene)-piperidin-1-yl]-1-cyclopropyl-6-fluoro-8-methoxy-4-oxo-1,4-dihydro-quinoline-3-carboxylic acid], for which the MIC stood at 0.06 µg/mL (≈ 0.149 µM) under setting [1]; 0.12 µg/mL (≈ 0.299 µM) under setting [2]; 1 µg/mL (≈ 2.49 µM) under setting [9]; 2 µg/mL (≈ 4.98 µM) under setting [3]; 2 µg/mL (≈ 4.98 µM) under setting [4].

`COc1c(N2CCC(=C(Cl)CN)CC2)c(F)cc2c(=O)c(C(=O)O)cn(C3CC3)c12` [Compound 7, 7-[4-(2-Amino-1-chloro-ethylidene)-piperidin-1-yl]-1-cyclopropyl-6-fluoro-8-methoxy-4-oxo-1,4-dihydro-quinoline-3-carboxylic Acid]: the MIC is, setting by setting: under setting [1], 0.015 µg/mL (≈ 0.0344 µM); under setting [2], 0.06 µg/mL (≈ 0.138 µM); under setting [9], 0.06 µg/mL (≈ 0.138 µM); under setting [3], 0.12 µg/mL (≈ 0.275 µM); under setting [4], 0.12 µg/mL (≈ 0.275 µM).

Turning to `COc1c(N2CCC/C(=C(\Cl)CN)CC2)c(F)cc2c(=O)c(C(=O)O)cn(C3CC3)c12` [Compound 394, (E)-7-[4-(2-Amino-1-chloro-ethylidene)-azepan-1-yl]-1-cyclopropyl-6-fluoro-8-methoxy-4-oxo-1,4-dihydro-quinoline-3-carboxylic acid], the MIC runs as follows: under setting [1], 0.03 µg/mL (≈ 0.0667 µM); under setting [2], 0.5 µg/mL (≈ 1.11 µM); under setting [9], 1 µg/mL (≈ 2.22 µM); under setting [3], 4 µg/mL (≈ 8.89 µM); under setting [4], 1 µg/mL (≈ 2.22 µM).

For `COc1c(N2CCC(=C(Cl)CN3CCCC3)CC2)c(F)cc2c(=O)c(C(=O)O)cn(C3CC3)c12` [Compound 193, 7-[4-(1-Chloro-2-pyrrolidin-1-yl-ethylidene)-piperidin-1-yl]-1-cyclopropyl-6-fluoro-8-methoxy-4-oxo-1,4-dihydro-quinoline-3-carboxylic acid], the MIC reads like this: under setting [1], 0.12 µg/mL (≈ 0.245 µM); under setting [2], 0.5 µg/mL (≈ 1.02 µM); under setting [9], 8 µg/mL (≈ 16.3 µM); under setting [3], 8 µg/mL (≈ 16.3 µM); under setting [4], 2 µg/mL (≈ 4.08 µM).

`COc1c(N2CCC(=C(F)CN)C(C)(C)C2)c(F)cc2c(=O)c(C(=O)O)cn(C3CC3)c12` [Compound 78, 7-[4-(2-Amino-1-fluoro-ethylidene)-3,3-dimethyl-piperidin-1-yl]-1-cyclopropyl-6-fluoro-8-methoxy-4-oxo-1,4-dihydro-quinoline-3-carboxylic acid]: the MIC reads like this: under setting [1], 1 µg/mL (≈ 2.23 µM); under setting [2], 0.25 µg/mL (≈ 0.559 µM); under setting [9], 2 µg/mL (≈ 4.47 µM); under setting [3], 1 µg/mL (≈ 2.23 µM).

In the case of `C[C@H]1COc2c(N3CCC/C(=C(\F)CN)C3)c(F)cc3c(=O)c(C(=O)O)cn1c23` [Compound 398, (E)-9-[3-(2-Amino-1-fluoro-ethylidene)-piperidin-1-yl]-8-fluoro-(3S)-3-methyl-6-oxo-2,3-dihydro-6H-1-oxa-3a-aza-phenalene-5-carboxylic acid], the MIC was at most 0.015 µg/mL under setting [1]; 0.03 µg/mL (≈ 0.074 µM) under setting [2]; 0.25 µg/mL (≈ 0.617 µM) under setting [9]; 0.5 µg/mL (≈ 1.23 µM) under setting [3]; 1 µg/mL (≈ 2.47 µM) under setting [4].

With `C/C(CN)=C1/CCCN(c2nc3c(cc2F)c(=O)c(C(=O)O)cn3C2CC2)C1` [Compound 377, (E)-7-[3-(2-Amino-1-methyl-ethylidene)-piperidin-1-yl]-1-cyclopropyl-6-fluoro-4-oxo-1,4-dihydro-[1,8]naphthyridine-3-carboxylic acid], the MIC runs as follows: under setting [1], 0.5 µg/mL (≈ 1.29 µM); under setting [2], 4 µg/mL (≈ 10.4 µM); under setting [9], 16 µg/mL (≈ 41.4 µM); under setting [3], 8 µg/mL (≈ 20.7 µM); under setting [4], above 16 µg/mL.

Turning to `COc1c(N2CCC/C(=C(/Cl)CN)C2)c(F)cc2c(=O)c(C(=O)O)cn(C3CC3)c12` [Compound 446, (Z)-7-[3-(2-Amino-1-chloro-ethylidene)-piperidin-1-yl]-1-cyclopropyl-6-fluoro-8-methoxy-4-oxo-1,4-dihydro-quinoline-3-carboxylic acid], the MIC reads like this: under setting [1], 0.25 µg/mL (≈ 0.574 µM); under setting [2], 1 µg/mL (≈ 2.29 µM); under setting [3], 4 µg/mL (≈ 9.18 µM); under setting [4], 4 µg/mL (≈ 9.18 µM).

For the origin of these results see patent US20090156577A1, “7-AMINO ALKYLIDENYL-HETEROCYCLIC QUINOLONES AND NAPHTHYRIDONES” (priority 2004, published 2009).
